Measurements: BindingDB's records for doi:10.1038/nbt1059 (Plexxikon, 2005)

Tests used:
[1] = molecular target: T1, cAMP-specific 3',5'-cyclic phosphodiesterase 4B [316-320,321-700,S319G,N320S,N321H,T322M] (Homo sapiens, UniProt Q07343, S319G/N320S/N321H/T322M); experiment: Phosphodiesterase (PDE) Inhibition Assay; conditions: pH 7.5; 30 °C
T1 construct: 316-320,321-700
Method: (§1) Phosphodiesterase activities were assayed in the presence of inhibitor compounds. Measurement takes advantage of the selective binding of 5-AMP or 5-GMP (and not cAMP or cGMP) to yttrium silicate beads with embedded scintillant. Hydrolysis is quantified by reading in a scintillation counter (Trilux, Wallac). The cAMP and cGMP concentrations used were far below the Km of PDE.

[2] = molecular target: cAMP-specific 3',5'-cyclic phosphodiesterase 4D [372-376,381-715,S375G,I381V,S383G,G384S,V385H,K386M) (Homo sapiens, UniProt Q08499, S375G/I381V/S383G/G384S/V385H/K386M); experiment: Phosphodiesterase (PDE) Inhibition Assay
Method: as §1

IC50 [1] [µM] | IC50 [2] [µM] | Structure (SMILES)
1.5 | 0.88 | CCOC(=O)c1cn(-c2ccccc2)nc1-c1ccc(Cl)cc1 [ethyl 3-(4-chlorophenyl)-1-phenyl-1H-pyrazole-4-carboxylate]
25 | 50 | CCOC(=O)c1cnn(-c2ncnc3sc4c(c23)CCCC4)c1N [ethyl 5-amino-1-{8-thia-4,6-diazatricyclo[7.4.0.0^{2,7}]trideca-1(9),2(7),3,5-tetraen-3-yl}-1H-pyrazole-4-carboxylate]
15 | 19 | CCOC(=O)c1c(-c2ccc(OC)cc2)n[nH]c1N [ethyl 3-amino-5-(4-methoxyphenyl)-1H-pyrazole-4-carboxylate]
60 |  | CCOC(=O)c1c(C)n[nH]c1C [ethyl 3,5-dimethyl-1H-pyrazole-4-carboxylate]
32 | 21 | CCOC(=O)c1c(C)nn(-c2ccc(OC(F)(F)F)cc2)c1C [ethyl 3,5-dimethyl-1-[4-(trifluoromethoxy)phenyl]-1H-pyrazole-4-carboxylate]
0.31 |  | CCOC(=O)c1c(C)nn(-c2ccccc2)c1C [ethyl 3,5-dimethyl-1-phenyl-1H-pyrazole-4-carboxylate]
> 200 | > 200 | CCOC(=O)c1cn[nH]c1N [ethyl 3-amino-1H-pyrazole-4-carboxylate]
> 200 | > 200 | CCOC(=O)c1cn[nH]c1C [ethyl 3-methyl-1H-pyrazole-4-carboxylate]
> 200 | > 200 | COC(=O)c1c(-c2cc(C)on2)n[nH]c1C [methyl 3-methyl-5-(5-methyl-1,2-oxazol-3-yl)-1H-pyrazole-4-carboxylate]

Second part, the compound before the results:

Structure (SMILES) | IC50 [1] [µM] | IC50 [2] [µM]
CCOC(=O)c1c(C)nn(-c2ccc([N+](=O)[O-])cc2[N+](=O)[O-])c1C [ethyl 1-(2,4-dinitrophenyl)-3,5-dimethyl-1H-pyrazole-4-carboxylate] | 17 | 4.6
CCOC(=O)c1c(C)nn(-c2ccc(OC)cc2)c1C [ethyl 1-(4-methoxyphenyl)-3,5-dimethyl-1H-pyrazole-4-carboxylate] | 5.9 | 
CCOC(=O)c1c(C)nn(-c2ccc([N+](=O)[O-])cc2)c1C [ethyl 3,5-dimethyl-1-(4-nitrophenyl)-1H-pyrazole-4-carboxylate] | 0.84 | 1
CCOC(=O)c1c(C)nn(-c2cccc3cccnc23)c1C [ethyl 3,5-dimethyl-1-(quinolin-8-yl)-1H-pyrazole-4-carboxylate] | 17 | 19
CCOC(=O)c1c(C)nn(-c2cc(C(F)(F)F)cc(C(F)(F)F)c2)c1C [ethyl 1-[3,5-bis(trifluoromethyl)phenyl]-3,5-dimethyl-1H-pyrazole-4-carboxylate] | 160 | 97
CCOC(=O)c1c(C)nn(-c2ccc(N)cc2)c1C [ethyl 1-(4-aminophenyl)-3,5-dimethyl-1H-pyrazole-4-carboxylate] | 0.35 | 
CCOC(=O)c1c(C)nn(-c2ccccc2Cl)c1C [ethyl 1-(2-chlorophenyl)-3,5-dimethyl-1H-pyrazole-4-carboxylate] |  | 0.019
Cc1n[nH]c(C)c1C(=O)O [3,5-dimethyl-1H-pyrazole-4-carboxylic acid] | > 200 | > 200
CCOC(=O)c1c(C)nn(-c2ccc(C(C)(C)C)cc2)c1C [ethyl 1-(4-tert-butylphenyl)-3,5-dimethyl-1H-pyrazole-4-carboxylate] | 19 | 14
CCOC(=O)c1c(C)nn(-c2ccc(S(N)(=O)=O)cc2)c1C [ethyl 3,5-dimethyl-1-(4-sulfamoylphenyl)-1H-pyrazole-4-carboxylate] | 13 | 9.1
CCOC(=O)c1c[nH]nc1C(F)(F)F [5-(trifluoromethyl)-1H-pyrazole-4-carboxylic acid ethyl ester] | > 200 | > 200
